Literature values as cited in patent US10231936B2, “Delayed release pharmaceutical formulations” (Euro-Celtique S.A., priority 2000, dated 2019).
Counter-ions that a name gives are not always drawn. Like-named read-outs stand apart in the source and are kept apart here.

Columns and labels:
[1] = spheroids in capsules
[2] = by mouth
[3] = conventional normal release dosage form

Structure (SMILES)	bioavailability [2]	elimination half-life [3] [h]	also measured
CCCC1O[C@@H]2C[C@H]3[C@@H]4CCC5=CC(=O)C=C[C@]5(C)[C@H]4[C@@H](O)C[C@]3(C)[C@]2(C(=O)CO)O1 (stereo partly drawn) [Budesonide]	–	–	total absorbed Budesonide absorbed in the ileum and ascending colon ([1]; fasting healthy subjects): 68%; total absorbed Budesonide absorbed in the ileum and ascending colon ([1]; fed healthy subjects): 69%
CCC(=O)O[C@]1(C(=O)SCF)[C@H](C)C[C@H]2[C@@H]3C[C@H](F)C4=CC(=O)C=C[C@]4(C)[C@@]3(F)[C@@H](O)C[C@@]21C [Fluticasone, Fluticasone Propionate]	low bioavailability	–	–
C[C@]12C=CC(=O)C=C1CC[C@@H]1[C@@H]2[C@@H](O)C[C@@]2(C)[C@H]1CC[C@]2(O)C(=O)COC(=O)c1cccc(S(=O)(=O)[O-])c1.[Na+] [PSMB, Prednisolone sodium metasulphobenzoate]	very low bioavailability	–	–
Cc1ccc(-c2nc3ccc(C)cn3c2CC(=O)N(C)C)cc1 [Zolpidem tartrate]	–	~2	–
CN1CCN(C(=O)OC2c3nccnc3C(=O)N2c2ccc(Cl)cn2)CC1 (stereo not drawn) [Zopiclone]	–	~2	–
